For one test, the system named is H6R-Aβ16. The note with it: ref [9]; cited from earlier work. An excerpt:
The dimeric form has a well-resolved characteristic signal of the V12 methyl group at 0.2 ppm, which allows for a quantitative assessment of the dimeric state. […] Thus, the ...

For a further test, the system named is transgenic mice. The note with it: in contrast to normal Aβ; ref [23], [24]; cited from earlier work. An excerpt: The development of AD comprises a cascade of pathogenic processes in brain tissue. Some of the major elements of this cascade are the aggregation of beta-amyloid (Aβ) with the formation of neurotoxic oligomers, hyperphosphorylation of tau, and neuroinflammation. […] In the sporadic form of AD, accounting for 95% of disease cases, the molecular triggers for the pathological cascade remain unknown. […] We hypothesized that the contribution of isoD7-Aβ to the development of AD is based on the formation of zinc-bound complexes that promote pathological aggregation of Aβ (Fig. 1A). […] Interaction of HAEE with beta-amyloid. (A) A model for the contribution of isoD7-Aβ to AD pathology, and the possible ways of preventing its deleterious effects. Aβ spontaneously converts into isoD7-Aβ, which is accumulated over age, likely due to reduced Aβ clearance. Isomerized Aβ promotes AD pathology, potentially via formation of Zn-bound complexes serving as the seeds for a generation of neurotoxic oligomers. Treatment with anti-isoAβ antibodies is a promising therapeutic strategy already showing effectiveness in AD model mice ^9.

The next test has as its system isoD7-Aβ16. The experiment in a line: NMR titration, isoD7-Aβ16 with HAEE and Zn2+. The class given is binding. The conditions noted are these: addition of Zn2+ without HAEE; disappearance of NMR signal (Supplementary Fig. 3); also ref [9]. The method, then: Peptides Aβ16, H6R-Aβ16 and isoD7-Aβ16 at the concentration of 0.2 - 8mM were dissolved in 10-20 mM bis-Tris-d19 (2,2-Bis(hydroxymethyl)-2,2′,2"-nitrilotrie-thanol-d19 with 98% ^2D enrichment) buffer solution (pH 6.8). Sodium salt of 3-(trimethylsilyl) propionic-2,2,3,3-d4 acid (DSS) at a concentration of 10-20 μM was added as the standard. NMR spectra were measured at 278 K in 90% H2O/10% D2O with Bruker AVANCE 600 MHz spectrometer equipped with triple resonance (^1H, ^13C and ^15N) pulsed field z gradient probe. 1D NMR spectra were processed and analyzed using the Mnova software (Mestrelab Research, Spain). In order to monitor peptide-peptide interactions NMR titration experiments were carried out. […] 1D spectra were recorded for each titration point.

For test [1] the following is noted: compared with normal Aβ; ref [9]; cited from earlier work. An excerpt:
We hypothesized that the contribution of isoD7-Aβ to the development of AD is based on the formation of zinc-bound complexes that promote pathological aggregation of Aβ (Fig. 1A).

Turning to “Ac-DAEFRRDSGYEVHHQK-NH2 [H6R-Aβ16, Aβ1-16 variant with the English (H6R) mutation]”, the “State of H6R-Aβ16 in the presence of Zn2+” value in the test on H6R-Aβ16 was “mixture of monomeric and dimeric forms”.
Turning to “Ac-DAEFRH[isoD]SGYEVHHQK-NH2 [isoD7-Aβ16, reference compound]”, the “Amyloidosis in transgenic mice” value in the test on transgenic mice is on record as “stimulate amyloidosis”. Moreover, the “Effect of Zn2+ on isoD7-Aβ16 (oligomerization; NMR signal)” value with isoD7-Aβ16 is “almost complete oligomerization and precipitation”. Besides, in test [1], the Zinc-dependent aggregation result is given as “increased capacity”.
